Laboratory results reported in patent publication US20060252749A1, “Lacosamide for add-on therapy of psychosis” (SRZ Properties, Inc., priority 2005, published 2006).
Entries after “also recorded” stand apart in the source; their conditions may differ.

Assays:
schizophrenia = conditions: cited from earlier work; for Effect on symptoms of schizophrenia: add-on to antipsychotics (Citrome 2003, p. 86); for Effect on psychosis / symptoms of schizophrenia, other anticonvulsants: reports on use in schizophrenia (Citrome 2003, p. 85)
[1] = range 60-400; cited from earlier work
C57BL/6J mice = assay: Prepulse inhibition (PPI) of the acoustic startle reflex in mice; type: in vivo; conditions: for Mean PPI: 30 min prior to testing
Excerpt: Chow and water were provided ad libitum for the duration of the study.
Responses were sampled every ms. The inter-trial interval was variable with an average of 15 s (range from 10 to 20 s).

GABA receptor subtypes = conditions: cited from earlier work
[2] = system: voltage-gated calcium channels; conditions: cited from earlier work
potassium currents = conditions: cited from earlier work
[3] = system: voltage-gated sodium channels; conditions: cited from earlier work

CCCC(CCC)C(=O)O [Valproate]
Effect on symptoms of schizophrenia (schizophrenia): preferentially reduce the positive symptoms
Effect on onset of action of the antipsychotic (schizophrenia; add-on to olanzapine or risperidone (Casey et al. 2003)): enhance the onset of action

CCCCCCCCCC(=O)OCCN1CCN(CC/C=C2/c3ccccc3Sc3ccc(Cl)cc32)CC1 [Zuclopenthixol decanoate]
Minimum effective dose [1]: 200 mg/2 weeks

NC(=O)N1c2ccccc2C=Cc2ccccc21 [carbamazepine]
Clinical outcome compared with antipsychotic monotherapy (schizophrenia; add-on to haloperidol): worse clinical outcome
Improvement on the total BPRS (brief psychiatric rating scale) (schizophrenia; another study on the use of carbamazepine): failure to detect significant improvement

CN1CCN(C2=Nc3cc(Cl)ccc3Nc3ccccc32)CC1 [clozapine]
Mean PPI (C57BL/6J mice; VEH 1/clozapine 3 mg/kg i.p., PPI expressed as a percentage of the basic startle response): 45 ± 2

NCC1(CC(=O)O)CCCCC1 [gabapentin]
Effect on psychosis / symptoms of schizophrenia, other anticonvulsants (schizophrenia): general worsening of psychosis

COC[C@@H](NC(C)=O)C(=O)NCc1ccccc1 [lacosamide, (R)-2-acetamide-N-benzyl-3-methoxypropionamide]
Mean PPI (C57BL/6J mice; lacosamide 3 mg/kg/VEH 2 i.p.): 29 ± 3
Mean PPI (C57BL/6J mice; lacosamide 10 mg/kg/VEH 2 i.p.): 34 ± 3
Mean PPI (C57BL/6J mice; lacosamide 30 mg/kg/VEH 2 i.p.): 27 ± 2
Effect on prepulse inhibition compared to vehicle (C57BL/6J mice; lacosamide administered alone, any dose tested): did not have any significant effect; also recorded: no significant effect
Direct interaction with known GABA receptor subtypes (GABA receptor subtypes): does not directly interact
Inhibition of voltage-gated calcium channels [2]: does not inhibit
Potentiation of potassium currents (potassium currents): does not potentiate
Inhibition of voltage-gated sodium channels [3]: does not inhibit

Nc1nnc(-c2cccc(Cl)c2Cl)c(N)n1 [lamotrigine]
Effect on symptoms of schizophrenia (schizophrenia): preferentially reduce the positive symptoms
Effect in schizophrenia when added to clozapine (schizophrenia; added to clozapine, double-blind placebo controlled clinical trial, treatment-resistant schizophrenia): beneficial for the treatment of treatment-resistant schizophrenia; also recorded: improvement of positive, not negative symptoms

CC1(C)O[C@@H]2[C@@H](CO[C@@]3(COS(N)(=O)=O)OC(C)(C)O[C@@H]23)O1 [topiramate]
Effect on psychosis / symptoms of schizophrenia, other anticonvulsants (schizophrenia): deterioration in both positive and negative symptoms
